Among the test systems are HCT-116 colon; SW-620 colon; U251 CNS; HCC-2998 colon; UO-31 renal; T-47D breast; SF-295 CNS; A549 NSCLC; M14 melanoma; SK-MEL-28 melanoma; MOLT-4 leukemia; OVCAR-5 ovarian; A498 renal.
Assay in all cases: DTP human tumour cell line panel, 48 h

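Test compounds were applied to cells in 96-well plates for 48 hours at 5 doses. TGI: concentration producing complete growth inhibition.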

Experimental findings from PubChem BioAssay (NCI) are described below.

In general, TGI refers to the concentration giving total growth inhibition. Low readings indicate greater sensitivity of the cells, high ones lower sensitivity of the cells.

Turning to `Cn1c(=O)c2c(nc3n2CCCC(=O)N3CCCCl)n(C)c1=O`, the TGI with HCT-116 colon, in the test on SW-620 colon, in the test with U251 CNS, with HCC-2998 colon, in the test on UO-31 renal and with T-47D breast was > 100 µM each time. Further, the TGI in the test on SF-295 CNS, with A549 NSCLC, in the test on M14 melanoma, in the test with SK-MEL-28 melanoma, in the test with MOLT-4 leukemia and in the test on OVCAR-5 ovarian was > 100 µM in each case. Moreover, the TGI in the test on A498 renal was > 100 µM.

For `O=C1c2ccccc2CC12Cc1cc3c(cc1C2)CCC3`, the TGI with HCT-116 colon, with SW-620 colon, in the test with U251 CNS, with HCC-2998 colon, in the test with UO-31 renal and in the test with T-47D breast was > 100 µM throughout. Also, the TGI was > 100 µM with SF-295 CNS; > 100 µM in the test with A549 NSCLC; 94.1 µM in the test on M14 melanoma; > 100 µM in the test with SK-MEL-28 melanoma; 82.1 µM with MOLT-4 leukemia; > 100 µM in the test on OVCAR-5 ovarian. Also, the TGI in the test with A498 renal is > 100 µM.

As to `Cc1cc(C)n(-c2nc(-n3nc(C)cc3C)nc(-n3nc(C)cc3C)n2)n1`, the TGI in the test on HCT-116 colon, in the test with SW-620 colon, in the test on HCC-2998 colon, with UO-31 renal, in the test on T-47D breast and with SF-295 CNS was > 100 µM throughout. For the same compound, the TGI with A549 NSCLC, in the test with M14 melanoma, in the test on SK-MEL-28 melanoma, in the test on MOLT-4 leukemia, in the test on OVCAR-5 ovarian and with A498 renal was > 100 µM in each case.

As to `COc1cccc([C@@H]2C/C(=N\NC(=O)C(=O)N[C@@H](C)c3ccccc3)c3ccccc3N2)c1`, the TGI in the test with HCT-116 colon, with SW-620 colon, in the test on U251 CNS, in the test with HCC-2998 colon, in the test on UO-31 renal and with T-47D breast was > 100 µM each time. The TGI is > 100 µM with SF-295 CNS; > 100 µM in the test on A549 NSCLC; > 100 µM in the test with M14 melanoma; > 100 µM in the test on SK-MEL-28 melanoma; 34.8 µM in the test with MOLT-4 leukemia; > 100 µM in the test with OVCAR-5 ovarian. Moreover, the TGI with A498 renal was > 100 µM.

As for `Cc1cccc(N=Nc2c(C)nn(C(=O)CC(=O)Nc3ccc(Cl)cc3)c2C)c1`, the TGI in the test on HCT-116 colon, with SW-620 colon, in the test on U251 CNS, with HCC-2998 colon, in the test with UO-31 renal and in the test on T-47D breast was > 100 µM throughout. Also, the TGI in the test with SF-295 CNS, in the test on A549 NSCLC, in the test on M14 melanoma, with SK-MEL-28 melanoma, with MOLT-4 leukemia and in the test with OVCAR-5 ovarian was > 100 µM in each case. In addition, in the test with A498 renal, the TGI was > 100 µM.

For the compound `Fc1cc2nc3n(c2cc1F)C(c1c(F)cccc1F)SC3` (configuration not stated), the TGI in the test on HCT-116 colon was 54.1 µM; in the test with SW-620 colon, > 100 µM; in the test on U251 CNS it was > 100 µM; with HCC-2998 colon, > 100 µM; in the test with UO-31 renal it was > 100 µM; with T-47D breast, > 100 µM. Besides, the TGI was > 100 µM in the test on SF-295 CNS; > 100 µM in the test on A549 NSCLC; 81.5 µM in the test on M14 melanoma; > 100 µM in the test on SK-MEL-28 melanoma; > 100 µM with MOLT-4 leukemia; > 100 µM with OVCAR-5 ovarian. The compound further gave a TGI in the test on A498 renal of 98.3 µM.

For `CCS1=C2C(=O)CC(C)(C)CC2=Nc2ccccc21` (configuration not stated), the TGI in the test with HCT-116 colon, with SW-620 colon, with U251 CNS, with HCC-2998 colon, with UO-31 renal and in the test with T-47D breast was > 100 µM each time. Moreover, the TGI with SF-295 CNS, with A549 NSCLC, in the test with M14 melanoma, with SK-MEL-28 melanoma, in the test with MOLT-4 leukemia and in the test on OVCAR-5 ovarian was > 100 µM in each case. For the same compound, in the test with A498 renal, the TGI is > 100 µM.

Turning to `N#Cc1ccc(C2ON=C(c3ccccc3)N2C23CC4CC(CC(C4)C2)C3)cc1` (configuration not stated), the TGI in the test with HCT-116 colon, in the test on SW-620 colon, in the test with U251 CNS, in the test on HCC-2998 colon, in the test with T-47D breast and in the test with SF-295 CNS was > 10 µM throughout. Further, the TGI in the test on A549 NSCLC, in the test on M14 melanoma, in the test with SK-MEL-28 melanoma, in the test with MOLT-4 leukemia, in the test on OVCAR-5 ovarian and in the test with A498 renal was > 10 µM throughout.

Turning to `CN(C)c1ccc(N=C2N=C(Nc3ccccc3)C(=Nc3ccccc3)S2)cc1`, the TGI in the test on HCT-116 colon, with SW-620 colon, in the test on HCC-2998 colon, in the test with T-47D breast, in the test on SF-295 CNS and with A549 NSCLC was > 100 µM throughout. In addition, the TGI in the test with M14 melanoma, in the test with SK-MEL-28 melanoma, with MOLT-4 leukemia, in the test with OVCAR-5 ovarian and with A498 renal was > 100 µM each time.

On to `NC(=O)N/N=C\CC(O)(C(F)(F)Cl)C(F)(F)Cl`, for which the TGI with HCT-116 colon, in the test on SW-620 colon, in the test on U251 CNS, with HCC-2998 colon, in the test with UO-31 renal and with T-47D breast was > 10 µM throughout. The TGI in the test on SF-295 CNS, in the test on A549 NSCLC, with M14 melanoma, in the test on SK-MEL-28 melanoma, in the test with MOLT-4 leukemia and in the test on A498 renal was > 10 µM each time.

For `Cc1ccc(S(=O)(=O)C2=Cc3ccccc3C2(O)c2ccccc2)cc1` (configuration not stated), the TGI was > 100 µM with HCT-116 colon; > 100 µM in the test on SW-620 colon; 87.7 µM in the test with U251 CNS; 91.3 µM with HCC-2998 colon; > 100 µM with T-47D breast; 76.9 µM with SF-295 CNS. The TGI was > 100 µM with A549 NSCLC; 31 µM in the test on M14 melanoma; 31.1 µM in the test with SK-MEL-28 melanoma; > 100 µM in the test with MOLT-4 leukemia; > 100 µM in the test on OVCAR-5 ovarian; > 10 µM in the test with A498 renal.
